Results: ChEMBL document CHEMBL3526031, “Mechanistic studies on the absorption and disposition of scutellarin in humans: selective OATP2B1-mediated hepatic uptake is a likely key determinant for its unique pharmacokinetic characteristics” (Drug Metab Dispos, 2012)

Assays:
[1] = target: T1, Solute carrier organic anion transporter family member 2B1 (Homo sapiens, UniProt O94956); assay: Ratio of Vmax to Km for drug uptake assessed as OATP2B1 (unknown origin)-mediated drug transport expressed in HEK293 cells by LC-MS/MS analysis; format: ADME, cell-based
T1 sequence (O94956 whole entry): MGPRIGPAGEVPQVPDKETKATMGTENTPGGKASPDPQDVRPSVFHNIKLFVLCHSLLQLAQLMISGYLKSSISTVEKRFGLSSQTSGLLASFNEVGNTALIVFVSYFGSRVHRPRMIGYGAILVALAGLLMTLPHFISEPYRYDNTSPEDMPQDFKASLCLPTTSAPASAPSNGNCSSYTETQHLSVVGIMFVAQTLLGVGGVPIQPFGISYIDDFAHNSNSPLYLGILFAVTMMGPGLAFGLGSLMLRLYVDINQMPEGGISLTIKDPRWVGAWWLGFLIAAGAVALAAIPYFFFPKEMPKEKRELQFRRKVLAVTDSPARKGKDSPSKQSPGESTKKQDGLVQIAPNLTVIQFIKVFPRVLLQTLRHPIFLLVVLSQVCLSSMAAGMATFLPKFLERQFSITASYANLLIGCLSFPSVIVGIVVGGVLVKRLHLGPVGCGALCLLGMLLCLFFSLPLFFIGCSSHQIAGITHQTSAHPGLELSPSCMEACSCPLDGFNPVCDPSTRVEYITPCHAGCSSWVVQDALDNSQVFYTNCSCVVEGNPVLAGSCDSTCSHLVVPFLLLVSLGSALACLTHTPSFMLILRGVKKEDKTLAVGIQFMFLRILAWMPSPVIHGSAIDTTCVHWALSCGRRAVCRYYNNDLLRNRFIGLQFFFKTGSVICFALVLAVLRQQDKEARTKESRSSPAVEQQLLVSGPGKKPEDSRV

[2] = target: T1, Solute carrier organic anion transporter family member 2B1; assay: (§1) Drug uptake assessed as OATP2B1 (unknown origin)-mediated drug transport expressed in HEK293 cells after 7 mins by LC-MS/MS analysis; format: ADME, cell-based
OATP2B1 = target: T2, OATP2B1 (Homo sapiens, UniProt O94956); assay: as §1; format: ADME, cell-based; conditions: human, HEK293 cells expressing OATP2B1
T2 sequence (O94956 whole entry): T1 sequence (O94956 whole entry)

[3] = target: T3, UDP-glucuronosyltransferase 1A1 (Homo sapiens, UniProt P22309); assay: Drug metabolism assessed as human recombinant UGT1A1-mediated formation of scutellarein-6,7-diglucuronide after 25 mins by HPLC/UV analysis; format: ADME
T3 sequence (P22309 whole entry): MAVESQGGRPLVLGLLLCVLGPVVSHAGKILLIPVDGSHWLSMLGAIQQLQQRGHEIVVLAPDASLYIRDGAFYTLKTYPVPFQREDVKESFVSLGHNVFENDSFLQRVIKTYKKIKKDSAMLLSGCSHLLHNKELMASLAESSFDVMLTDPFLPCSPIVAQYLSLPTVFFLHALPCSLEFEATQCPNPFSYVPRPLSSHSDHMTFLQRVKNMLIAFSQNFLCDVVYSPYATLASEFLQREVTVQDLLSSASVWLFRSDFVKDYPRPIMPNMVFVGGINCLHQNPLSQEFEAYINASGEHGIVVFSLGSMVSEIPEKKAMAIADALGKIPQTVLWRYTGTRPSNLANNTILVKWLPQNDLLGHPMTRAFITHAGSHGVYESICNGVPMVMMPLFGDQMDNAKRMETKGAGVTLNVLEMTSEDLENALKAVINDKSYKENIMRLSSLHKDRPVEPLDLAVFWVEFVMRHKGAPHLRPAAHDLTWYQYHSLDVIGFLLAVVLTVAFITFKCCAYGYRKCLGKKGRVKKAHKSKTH

Homo sapiens = assay: Drug level in human assessed as retention time treated with 40 mg, po of scutellarin measured up to 20 hrs by mass defect filter chromatogram analysis; format: ADME, organism-based

| SMILES | Vmax/Km [1] [µL/min/mg] | Ki [2] [µM] | Vmax ([2]; human, hek293, 7 min) [pmol/min/mg] | Km at 7 min (OATP2B1) [µM] | Ki [3] [µM] | Retention_time (Homo sapiens) [min] |
| --- | --- | --- | --- | --- | --- | --- |
| O=C(O)[C@H]1O[C@@H](Oc2cc3oc(-c4ccc(O)cc4)cc(=O)c3c(O)c2O)[C@H](O)[C@@H](O)[C@@H]1O [SCUTELLARIN] | 11.1 | 25.9 | 113 | 43 | 96.6 |  |
| O=C(O)[C@H]1O[C@@H](Oc2c(O)cc3oc(-c4ccc(O)cc4)cc(=O)c3c2O)[C@H](O)[C@@H](O)[C@@H]1O |  |  |  |  |  | 9.19 |
